Results published in US20230019236A1, “PROTEIN TYROSINE PHOSPHATASE INHIBITORS AND METHODS OF USE THEREOF” (Calico Life Sciences LLC, priority 2019, published 2023).
Like-named read-outs stand apart in the source and are kept apart here.

Assays:
[1] = molecular target: T1, His tagged full-length PTP1B protein (Homo sapiens, UniProt P18031); experiment: Mobility Shift Assay (MSA) used to determine potency of PTP1B inhibitors; type: biochemical; conditions: Table 2
T1 construct: made in house
T1 sequence (P18031 with tags, fused parts or gaps): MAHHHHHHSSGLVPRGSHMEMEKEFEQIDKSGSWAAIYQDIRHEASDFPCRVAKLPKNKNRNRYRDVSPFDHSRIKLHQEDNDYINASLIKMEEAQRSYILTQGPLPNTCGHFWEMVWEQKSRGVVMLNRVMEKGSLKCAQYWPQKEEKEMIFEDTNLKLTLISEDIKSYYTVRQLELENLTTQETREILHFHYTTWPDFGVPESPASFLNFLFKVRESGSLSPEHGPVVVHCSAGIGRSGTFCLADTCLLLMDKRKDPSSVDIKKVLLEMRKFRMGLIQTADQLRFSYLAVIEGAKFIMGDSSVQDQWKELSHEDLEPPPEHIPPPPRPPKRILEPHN
Description: The enzymatic assay used to determine activity is a mobility shift assay using a LabChip EZ Reader by Caliper Life Sciences. The enzymatic reaction was carried out in assay buffer (50 mM HEPES pH 7.5, 1 mM EGTA, 10 mM EDTA, 0.01% Tween® 20, and 2 mM DTT). […] The enzyme (at 0.5 nM) was incubated with compound for 10 minutes at room temperature. […] The % inhibition was then used to calculate the IC50 values.

[2] = system: B16F10 mouse melanoma cells; experiment: B16F10 IFNγ-induced cellular growth inhibition assay; type: cell-based; conditions: Mus musculus, B16-F10, compound 33 μM, Table 3
Description: Example 294: B16F10 IFNγ-Induced Cellular Growth Inhibition Assay
B16F10 mouse melanoma cells (ATCC Cat# CRL-6475, Manassas, Va.) were seeded at a density of 500 cells per well in a 384-well clear bottom plate (Corning Cat#3765, Corning, N.Y.) in 25 μL total volume of DMEM+10% FBS (Sigma Cat# D6429 and Sigma Cat# F4135, St. Louis, MO). Cells were allowed to adhere overnight at 37° C. +5% CO2. On the following day, 12.5 μL of mouse IFNγ (RD systems Cat# 485-MI/CF, Minneapolis, Minn.) was added to half of the plate (columns 13-24) at a concentration of 2 ng/mL for a final assay concentration of 0.5 ng/mL of IFNγ. Media only (12.5 μL of DMEM+10% FBS) was added to the remainder of the plate (columns 1-12). Next, compounds resuspended in DMSO (Sigma Cat# D2650) at 100 mM were diluted in semi-log dilutions in DMSO ranging from 100 mM to 0.001 mM and DMSO only controls were included. The compound/DMSO dilutions were further diluted 1:250 in DMEM+10% FBS, and 12.5 μL of these dilutions were added in triplicates to cells of both treatment arms (with and without IFNγ). Final compound concentrations ranged from 100 μM to 0.001 μM with a final DMSO concentration of 0.1%. Compounds were only dosed in the inner 240 wells, avoiding the outer 2-well perimeter of the plate to minimize edge effects. Finally, the plate was loaded into an IncuCyte® S3 Live Cell Analysis System (Essen Bioscience-Sartorius, Ann Arbor, Mich.) maintained in a 37° C. +5% CO2 incubator, allowed to equilibrate for 2 hours, and imaged every 6 hours for 5 days. Confluence over time for compound dilutions in the presence and absence of IFNγ was measured. Growth inhibition values were obtained when the “DMSO/no IFNγ” control reached confluence >95%. At these time points, the percent growth inhibition of each compound at the indicated concentration was calculated relative to the “DMSO/with IFNγ” control.

[3] = system: Pan T cells isolated from C57BL6 splenocytes; experiment: T cell activation assay (CD25/CD69 flow cytometry); type: cell-based, mouse; conditions: with TCR stimulation; Table 5
Description: Example 295: T cell activation and function assays
Pan T cells were isolated from C57BL6 splenocytes using a MACS Pan T cell isolation kit II (Miltenyi Biotec, Auburn, Calif.) according to the manufacturer's instructions. Isolated T cells (200,000 cells/well in a 96 well flat-bottom plate) were cultured in RPMI 1640 supplemented with 10% FBS, […] 2-mercatoethanol, 100 U/mL penicillin, and 100 μg/mL streptomycin, and incubated with the indicated concentration of compound or DMSO in duplicates. After 1 hour, mouse T cell activator CD3/CD28 Dynabeads (ThermoFisher Scientific, Waltham, Mass.) were added at a 1:5 beads to cells ratio to stimulate the T cells for 2 or 3 days as outlined below. T cells with or without compound were incubated in the absence of T cell activator beads (media only) as control.
After 2 days of stimulation, activation status of T cells was assessed by flow cytometry. T cells were first subjected to Zombie Violet™ Fixable Viability dye (BioLegend, San Diego, Calif.) for dead cell exclusion, washed and then stained with BUV805 labeled anti-CD8, APC-R700 labeled anti-CD25 (both from BD Biosciences, San Jose, Calif.) and PE labeled anti-CD69 (BioLegend, San Diego, Calif.) antibodies. After staining, cells were fixed with 2% paraformaldehyde and acquired on a BD LSRFortessa™ X-20 flow cytometer (BD Biosciences, San Jose, Calif.) using BD FACSDiva™ software. Data was analyzed using FlowJo V10 (Flow Jo LLC, Ashland, OR). Dead cells were excluded and frequencies of activated CD8 T cells was reported as the frequency of CD25+ or CD69+ cells within the CD8+ population. The expression level of CD25 and CD69 indicates the activation status of cells on a per cell basis and was evaluated by the mean fluorescence intensities (MFI) of CD25 and CD69.

[4] = molecular target: T2, His tagged PTPN2 (TC45) protein (Homo sapiens, UniProt P17706); experiment: Mobility Shift Assay used to determine potency of PTPN2 inhibitors; type: biochemical; conditions: Table 2; read-out: PTPN2 MSA IC50
T2 construct: made in house
T2 sequence (P17706 with tags, fused parts or gaps isoform P17706-2): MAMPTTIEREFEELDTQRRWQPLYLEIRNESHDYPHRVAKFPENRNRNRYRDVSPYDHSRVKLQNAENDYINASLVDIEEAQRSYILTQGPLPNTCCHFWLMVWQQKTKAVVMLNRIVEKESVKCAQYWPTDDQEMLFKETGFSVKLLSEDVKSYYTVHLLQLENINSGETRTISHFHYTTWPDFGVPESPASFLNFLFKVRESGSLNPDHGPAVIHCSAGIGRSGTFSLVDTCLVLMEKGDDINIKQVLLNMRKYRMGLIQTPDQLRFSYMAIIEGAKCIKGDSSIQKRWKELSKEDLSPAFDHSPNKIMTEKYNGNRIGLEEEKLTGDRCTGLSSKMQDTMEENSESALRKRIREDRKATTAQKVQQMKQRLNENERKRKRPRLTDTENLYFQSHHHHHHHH
Method in brief: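 His-tagged human PTPN2 (TC45), 0.5 nM, preincubated 10 min RT with compound (12-point, 1:3 dilution) in HEPES pH 7.5 buffer with EDTA/DTT; 2 µM OG488-labelled phospho-insulin-receptor peptide added, 10 min RT, then quenched. Dephosphorylation read by microfluidic mobility shift (ex 488/em 530 nm); IC50 from % inhibition.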

[5] = +0.5 ng/mL IFNγ, relative to DMSO/with IFNγ control, read-out: % B16F10 growth inhibition (+0.5 ng/mL IFNγ) @ 33 μM
[6] = no IFNγ, read-out: % B16F10 growth inhibition (no IFNγ) @ 33 μM

IC50 [1] | SMILES | inhibition at 33 µM [2, 5] | inhibition at 33 µM [2, 6] | T cell activation and T cell function [3] | IC50 [4]
< 1 nM | O=C1CN(c2c(O)cc3ccc(C4=CCN(S(=O)(=O)C5CC5)C4)cc3c2F)S(=O)(=O)N1 [Compound 113, 5-{7-[1-(cyclopropanesulfonyl)-2,5-dihydro-1H-pyrrol-3-yl]-1-fluoro-3-hydroxynaphthalen-2-yl}-1λ^6,2,5-thiadiazolidine-1,1,3-trione] |  |  | increased both T cell activation and T cell function | 
10 to 100 nM | O=C1CN(c2c(O)cc3ccc(CC4CCN(S(=O)(=O)C5CC5)CC4)cc3c2F)S(=O)(=O)N1 [Compound 257, 5-(7-{[1-(cyclopropanesulfonyl)piperidin-4-yl]methyl}-1-fluoro-3-hydroxynaphthalen-2-yl)-1λ^6,2,5-thiadiazolidine-1,1,3-trione] | 25 to 59% | < 25% |  | 1 to 10 nM
10 to 100 nM | O=C1CN(c2c(O)cc3ccc(OC(F)F)cc3c2F)S(=O)(=O)N1 [Compound 260, 5-[7-(difluoromethoxy)-1-fluoro-3-hydroxynaphthalen-2-yl]-1λ^6,2,5-thiadiazolidine-1,1,3-trione] |  |  | increased both T cell activation and T cell function | 
1 to 10 nM | NCCCS(=O)(=O)N1CC=C(c2ccc3cc(O)c(N4CC(=O)NS4(=O)=O)c(F)c3c2)C1 [Compound 345, 5-{7-[1-(3-aminopropane-1-sulfonyl)-2,5-dihydro-1H-pyrrol-3-yl]-1-fluoro-3-hydroxynaphthalen-2-yl}-1λ^6,2,5-thiadiazolidine-1,1,3-trione] |  |  |  | < 1 nM
< 1 nM | O=C1CN(c2c(O)cc3ccc(OCCC4CCC4)cc3c2F)S(=O)(=O)N1 [Compound 353, 5-[7-(2-cyclobutylethoxy)-1-fluoro-3-hydroxynaphthalen-2-yl]-1λ^6,2,5-thiadiazolidine-1,1,3-trione] |  |  |  | < 1 nM

The remaining lines, values behind:

SMILES | IC50 [1] | inhibition at 33 µM [2, 5] | inhibition at 33 µM [2, 6] | T cell activation and T cell function [3] | IC50 [4]
CC(C)NC(=O)Oc1ccc2cc(O)c(N3CC(=O)NS3(=O)=O)c(F)c2c1 [Compound 103, 8-fluoro-6-hydroxy-7-(1,1,4-trioxo-1λ^6,2,5-thiadiazolidin-2-yl)naphthalen-2-yl propan-2-ylcarbamate] | 10 to 100 nM | 60 to 90% | < 25% |  | 
CP(C)(=O)N1CC=C(c2ccc3cc(O)c(N4CC(=O)NS4(=O)=O)c(F)c3c2)C1 [Compound 168, 5-{7-[1-(dimethylphosphoryl)-2,5-dihydro-1H-pyrrol-3-yl]-1-fluoro-3-hydroxynaphthalen-2-yl}-1λ^6,2,5-thiadiazolidine-1,1,3-trione] | 1 to 10 nM | > 90% | < 25% |  | 
CC(C)(O)CCCc1ccc2cc(O)c(N3CC(=O)NS3(=O)=O)c(F)c2c1 [Compound 154, 5-[1-fluoro-3-hydroxy-7-(4-hydroxy-4-methylpentyl)naphthalen-2-yl]-1λ^6,2,5-thiadiazolidine-1,1,3-trione] | 1 to 10 nM | 60 to 90% | < 25% |  | < 1 nM
CC(C)(C#N)CCOc1cc2c(F)c(N3CC(=O)NS3(=O)=O)c(O)cc2cc1O [Compound 366, 4-{[8-fluoro-3,6-dihydroxy-7-(1,1,4-trioxo-1λ^6,2,5-thiadiazolidin-2-yl)naphthalen-2-yl]oxy}-2,2-dimethylbutanenitrile] | < 1 nM |  |  |  | < 1 nM
CC(C)(O)CCNc1ccc2c(F)c(N3CC(=O)NS3(=O)=O)c(O)cc2c1 [Compound 333, 5-{1-fluoro-3-hydroxy-6-[(3-hydroxy-3-methylbutyl)amino]naphthalen-2-yl}-1λ^6,2,5-thiadiazolidine-1,1,3-trione] | 10 to 100 nM |  |  |  | 10 to 100 nM
O=C1CN(c2c(O)cc3cc(O)c(Br)cc3c2F)S(=O)(=O)N1 [Compound 370, 5-(7-bromo-1-fluoro-3,6-dihydroxynaphthalen-2-yl)-1λ^6,2,5-thiadiazolidine-1,1,3-trione] | 1 to 10 nM |  |  |  | 1 to 10 nM
O=C1CN(c2c(O)cc3cc(OCCCC(F)F)ccc3c2F)S(=O)(=O)N1 [Compound 340, 5-[6-(4,4-difluorobutoxy)-1-fluoro-3-hydroxynaphthalen-2-yl]-1λ^6,2,5-thiadiazolidine-1,1,3-trione] | 10 to 100 nM |  |  |  | 10 to 100 nM
N#CCC1(COc2ccc3cc(O)c(N4CC(=O)NS4(=O)=O)c(F)c3c2)CC1 [Compound 130, [1-({[8-fluoro-6-hydroxy-7-(1,1,4-trioxo-1λ^6,2,5-thiadiazolidin-2-yl)naphthalen-2-yl]oxy}methyl)cyclopropyl]acetonitrile] | 1 to 10 nM |  |  |  | 1 to 10 nM
CCc1cc2c(F)c(N3CC(=O)NS3(=O)=O)c(O)cc2cc1O [Compound 358, 5-(7-ethyl-1-fluoro-3,6-dihydroxynaphthalen-2-yl)-1λ^6,2,5-thiadiazolidine-1,1,3-trione] | 1 to 10 nM |  |  |  | 1 to 10 nM
